This is an account of results in the supplement of paper PMC11061612.

For experiment [1], the system named is IM-95 (Gastric Carcinoma). The experiment can be described thus: Bliss excess, mean over the matrix (fraction); higher = more synergy. Summed up:
(§1)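 Bliss excess equals the observed combination effect minus the expected value EA + EB − EA·EB, where EA and EB are the effects of each agent alone. Combination Emax is the second-highest inhibition within the matrix. Inhibition was scaled from CellTiter-Glo 2.0 luminescence, with 0 set by vehicle wells and 1 by blank wells, after 72 hours of two-drug dosing of cells plated in 1536-well plates.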

Experiment [2] relates to OCI-AML3 (Acute Myeloid Leukemia). The experiment is described as above. Summed up: as §1
Experiment [3] deals with SK-GT-2 (Gastric Carcinoma). The experiment is described as above. The method, boiled down: as §1
For experiment [4], the system named is BICR10 (Oral Cavity Carcinoma). The experiment is described as above. The method, boiled down: as §1
Experiment [5] has as its system OCI-AML3 (Acute Myeloid Leukemia). The experiment can be described thus: combination Emax (second highest fraction inhibited in the dose matrix, 72 h); higher = more inhibition; extreme values may be limits of the assay. Summed up:
as §1

For experiment [6], the system named is BICR10 (Oral Cavity Carcinoma). The experiment is described as above. Summed up:
as §1

Take `CN(C)CCCOc1ccc(-c2ccc3ncc4c(c3c2)n(C2CCOCC2)c(=O)n4C)cn1` [AZD0156] + O=C(c1cc(Cc2n[nH]c(=O)c3ccccc23)ccc1F)N1CCN(C(=O)C2CC2)CC1 [Olaparib] (first compound max 3 µM, partner max 3 µM): the Bliss excess in experiment [1] was -0.0093; in experiment [2], 0.128; in experiment [3] it was 0.0292; in experiment [4] it was 0.0275. Moreover, the “combination Emax” value in experiment [5] came to 0.392; in experiment [6], 0.348.
In the case of `C=CCn1c(=O)c2cnc(Nc3ccc(N4CCN(C)CC4)cc3)nc2n1-c1cccc(C(C)(C)O)n1` [AZD1775] + C1CN(CCC1(C(=O)N[C@@H](CCO)C2=CC=C(C=C2)Cl)N)C3=NC=NC4=C3C=CN4 [Capivasertib] (first compound max 3 µM, partner max 3 µM), the Bliss excess is 0.0275 in experiment [1], 0.0051 in experiment [2], 0.0174 in experiment [3] and -0.0418 in experiment [4]. The “combination Emax” value in experiment [5] worked out at 0.914; in experiment [6], 0.829.
With `CC(=O)c1c(C)c2cnc(Nc3ccc(N4CCNCC4)cn3)nc2n(C2CCCC2)c1=O` [Palbociclib] + CC1(C)CCC(CN2CCN(c3ccc(C(=O)NS(=O)(=O)c4ccc(NCC5CCOCC5)c([N+](=O)[O-])c4)c(Oc4cnc5[nH]ccc5c4)c3)CC2)=C(c2ccc(Cl)cc2)C1 [Venetoclax] (first compound max 10 µM, 7x7, partner max 1 µM), the figures for the Bliss excess in experiment [1], in experiment [2] and in experiment [3] were -0.0399, -0.0679 and -0.0342, respectively. The “combination Emax” value in experiment [5] worked out at 0.585.
The corresponding values for `CC(=O)c1c(C)c2cnc(Nc3ccc(N4CCNCC4)cn3)nc2n(C2CCCC2)c1=O` [Palbociclib] + Cc1c2c(nn1C)CSCc1cc(n(C)n1)CSc1cc(c3ccccc3c1)OCCCc1c(C(=O)O)n(C)c3c-2c(Cl)ccc13 [AZD5991] (first compound max 10 µM, 7x7, partner max 1 µM) are -0.114, 0.0376, -0.021 and 1.
With `CC(=O)c1c(C)c2cnc(Nc3ccc(N4CCNCC4)cn3)nc2n(C2CCCC2)c1=O` [Palbociclib] + Cn1cnc2c(F)c(Nc3ccc(Br)cc3Cl)c(C(=O)NOCCO)cc21 [Selumetinib] (first compound max 10 µM, 7x7, partner max 10 µM), the Bliss excess is 0.0356 in experiment [1], 0.0289 in experiment [2] and -0.0175 in experiment [3]. In addition, the “combination Emax” value in experiment [5] worked out at 0.935.
For `C[C@@H](c1ccc2nccn2c1)n1nnc2ncc(-c3cnn(C)c3)nc21` [Savolitinib] + CC1(C)CCC(CN2CCN(c3ccc(C(=O)NS(=O)(=O)c4ccc(NCC5CCOCC5)c([N+](=O)[O-])c4)c(Oc4cnc5[nH]ccc5c4)c3)CC2)=C(c2ccc(Cl)cc2)C1 [Venetoclax] (first compound max 1 µM, 7x7, partner max 1 µM) the same measures were -0.0368, -0.0358, -0.0144 and 0.154.
On to `C[C@@H](c1ccc2nccn2c1)n1nnc2ncc(-c3cnn(C)c3)nc21` [Savolitinib] + Cc1c2c(nn1C)CSCc1cc(n(C)n1)CSc1cc(c3ccccc3c1)OCCCc1c(C(=O)O)n(C)c3c-2c(Cl)ccc13 [AZD5991] (first compound max 1 µM, 7x7, partner max 1 µM), for which the Bliss excess in experiment [1] is -0.0166; in experiment [2], -0.0103; in experiment [3], -0.0274. Further, the “combination Emax” value in experiment [5] is 0.967.
Consider `Cn1cnc2c(F)c(Nc3ccc(Br)cc3Cl)c(C(=O)NOCCO)cc21` [Selumetinib] + C=CCn1c(=O)c2cnc(Nc3ccc(N4CCN(C)CC4)cc3)nc2n1-c1cccc(C(C)(C)O)n1 [AZD1775] (first compound max 10 µM, partner max 1 µM), for which the figures for the Bliss excess in experiment [1], in experiment [2] and in experiment [3] were 0.0309, -0.0213 and -0.0872, respectively. Also, in experiment [5], the “combination Emax” value was found to be 0.94.
Regarding `Cn1cnc2c(F)c(Nc3ccc(Br)cc3Cl)c(C(=O)NOCCO)cc21` [Selumetinib] + CC(C)n1c(=O)n(C)c2cnc3cc(F)c(-c4ccc(OCCCN5CCCCC5)nc4)cc3c21 [AZD1390] (first compound max 10 µM, 7x7, partner max 0.3 µM), the Bliss excess was -0.0078 in experiment [1], -0.0696 in experiment [2] and -0.0423 in experiment [3]. For the same compound, the “combination Emax” value in experiment [5] worked out at 0.909.
The corresponding values for `Cn1cnc2c(F)c(Nc3ccc(Br)cc3Cl)c(C(=O)NOCCO)cc21` [Selumetinib] + CCN(CCO)CCCOc1ccc2c(Nc3cc(CC(=O)Nc4cccc(F)c4)[nH]n3)ncnc2c1 [AZD2811] (first compound max 10 µM, 7x7, partner max 1 µM) are 0.0874, 0.0086, -0.0443 and 0.949.
For `Cn1cnc2c(F)c(Nc3ccc(Br)cc3Cl)c(C(=O)NOCCO)cc21` [Selumetinib] + C[C@@H]1COCCN1C2=NC(=NC(=C2)C3(CC3)[S@](=N)(=O)C)C4=C5C=CNC5=NC=C4 [AZD6738] (first compound max 10 µM, 7x7, partner max 10 µM) the same measures were 0.0554, -0.0941, -0.0229 and 0.943.
